Source: patent US6737383B1, “Herbicidal oxadiazolidines” (priority 1999, dated 2004)

How the values were obtained:
rice = assay: Test B flood test rice; assay type: in vivo, Oryza sativa
How it was run: (§1)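 Each value is a visual injury score relative to controls, with 10 meaning complete control and 0 no effect. Evaluation took place twelve to sixteen days after the 2-leaf-stage plants were treated and kept in the greenhouse.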

velvetleaf = assay: Test B pre/postemergence velvetleaf; assay type: in vivo, Abutilon theophrasti
How it was run: (§2)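 Response is a visual 0-to-10 score relative to untreated plants, where 0 means no effect and 10 means complete control, taken twelve to sixteen days after application. Treatments went onto soil at planting and onto foliage of 1- to 4-leaf plants, using a surfactant-containing non-phytotoxic solvent.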

corn = assay: Test B pre/postemergence corn; assay type: in vivo, Zea mays
How it was run: as §2

sugar beet = assay: Test B pre/postemergence sugar beet; assay type: in vivo, Beta vulgaris
How it was run: as §2

smallflower flatsedge = assay: Test B flood test smallflower flatsedge; assay type: in vivo, Cyperus difformis
How it was run: as §1

rape = assay: Test B pre/postemergence rape; assay type: in vivo, Brassica napus
How it was run: as §2

cocklebur = assay: Test B pre/postemergence cocklebur; assay type: in vivo, Xanthium strumarium
How it was run: as §2

surinam grass = assay: Test B pre/postemergence surinam grass; assay type: in vivo, Brachiaria decumbens
How it was run: as §2

duck salad = assay: Test B flood test duck salad; assay type: in vivo, Heteranthera limosa
How it was run: as §1

wild oat = assay: Test B pre/postemergence wild oat; assay type: in vivo, Avena fatua
How it was run: as §2

bedstraw = assay: Test B pre/postemergence bedstraw; assay type: in vivo, Galium aparine
How it was run: as §2

soybean = assay: Test B pre/postemergence soybean; assay type: in vivo, Glycine max
How it was run: as §2

crabgrass = assay: Test B pre/postemergence crabgrass; assay type: in vivo, Digitaria sanguinalis
How it was run: as §2

morningglory = assay: Test B pre/postemergence morningglory; assay type: in vivo, Ipomoea hederacea
How it was run: as §2

pigweed = assay: Test B pre/postemergence pigweed; assay type: in vivo, Amaranthus retroflexus
How it was run: as §2

bamyardgrass = assay: Test B flood test barnyardgrass; assay type: in vivo, Echinochloa crus-galli
How it was run: as §1

[1] = Postemergence, Rate 62 g/ha, scale 0 to 10, 0 is no effect, 10 is complete control
[2] = Rate 125 g/ha, Postemergence section (flood test species), scale 0 to 10, 0 no effect, 10 complete control
[3] = Rate 250 g/ha, headed Pre-emergence (flood test species), scale 0 to 10 (0 no effect, 10 complete control)
[4] = Rate 500 g/ha, Postemergence section of Table B, 0 to 10 scale (0 no effect, 10 complete control)
[5] = Rate 500 g/ha, headed Pre-emergence (flood test species), scale 0 to 10 (0 no effect, 10 complete control)
[6] = Rate 1000 g/ha, Pre-emergence (as headed), scale 0 to 10
[7] = Rate 2000 g/ha, Pre-emergence (as headed), scale 0 to 10
[8] = flood test, listed under Postemergence, Rate 250 g/ha, scale 0 to 10, 0 no effect, 10 complete control
[9] = Postemergence, Rate 250 g/ha, scale 0 to 10, 0 no effect, 10 complete control
[10] = Preemergence, Rate 31 g/ha, visual rating, scale 0 to 10 (0 no effect, 10 complete control)
[11] = Preemergence, Rate 62 g/ha, scale 0 to 10, 0 is no effect, 10 is complete control
[12] = Preemergence, Rate 125 g/ha, scale 0 to 10 (0 no effect, 10 complete control)
[13] = Preemergence, Rate 250 g/ha, scale of 0 to 10 where 0 is no effect and 10 is complete control
[14] = Rate 125 g/ha, Postemergence, scale 0 to 10, 0 no effect, 10 complete control
[15] = Rate 31 g/ha, Postemergence, scale 0 to 10

COc1ccccc1-n1c(=O)on(C(=O)N(c2ccc(F)cc2)C(C)C)c1=O [Compound 30]
Rice plant response rating (rice; [1]): 0
Rice plant response rating (rice; [2]): 0
Rice plant response rating (rice; [3]): 0
Rice plant response rating (rice; [4]): 0
Plant response rating, Rice (rice; [5]): 0
Rice plant response rating (rice; [6]): 0
Rice plant response rating (rice; [7]): 0
Rice plant response rating (rice; [8]): 0
Velvetleaf plant response rating (velvetleaf; [1]): 0
Velvetleaf plant response rating (velvetleaf; [9]): 0
Velvetleaf plant response rating (velvetleaf; [10]): 0
Plant response rating, Velvetleaf (velvetleaf; [11]): 0
Plant response rating, Velvetleaf (velvetleaf; [12]): 0
Plant response rating, Velvetleaf (velvetleaf; [13]): 3
Velvetleaf plant response rating (velvetleaf; [14]): 0
Corn plant response rating (corn; [1]): 0
Corn plant response rating (corn; [9]): 0
Corn plant response rating (corn; [10]): 0
Plant response rating, Corn (corn; [11]): 0
Plant response rating, Corn (corn; [12]): 0
Plant response rating, Corn (corn; [13]): 0
Corn plant response rating (corn; [15]): 0
Corn plant response rating (corn; [14]): 0
Sugarbeets plant response rating (sugar beet; [1]): 0
Sugarbeets plant response rating (sugar beet; [9]): 0
Sugarbeets plant response rating (sugar beet; [10]): 0
Plant response rating, Sugarbeets (sugar beet; [11]): 0
Plant response rating, Sugarbeets (sugar beet; [12]): 0
Plant response rating, Sugarbeets (sugar beet; [13]): 0
Sugarbeets plant response rating (sugar beet; [14]): 0
S. Flatsedge plant response rating (smallflower flatsedge; [1]): 0
S. Flatsedge plant response rating (smallflower flatsedge; Pre-emergence, Rate 1000 g/ha, scale 0 to 10 (0 no effect, 10 complete control)): 0
S. Flatsedge plant response rating (smallflower flatsedge; [2]): 0
S. Flatsedge plant response rating (smallflower flatsedge; [3]): 0
Plant response rating, S. Flatsedge (smallflower flatsedge; [5]): 0
S. Flatsedge plant response rating (smallflower flatsedge; [7]): 0
S. Flatsedge plant response rating (smallflower flatsedge; [8]): 0
Rape plant response rating (rape; [1]): 0
Rape plant response rating (rape; [9]): 0
Rape plant response rating (rape; [10]): 0
Plant response rating, Rape (rape; [11]): 0
Plant response rating, Rape (rape; [12]): 0
Plant response rating, Rape (rape; [13]): 0
Rape plant response rating (rape; [15]): 0
Rape plant response rating (rape; [14]): 0
Cocklebur plant response rating (cocklebur; [1]): 0
Cocklebur plant response rating (cocklebur; [9]): 0
Cocklebur plant response rating (cocklebur; [10]): 0
Plant response rating, Cocklebur (cocklebur; [11]): 0
Plant response rating, Cocklebur (cocklebur; [12]): 0
Cocklebur plant response rating (cocklebur; [15]): 0
Cocklebur plant response rating (cocklebur; [14]): 0
B. signalgrass plant response rating (surinam grass; [1]): 0
B. signalgrass plant response rating (surinam grass; [9]): 0
B. signalgrass plant response rating (surinam grass; [10]): 0
Plant response rating, B. signalgrass (surinam grass; [11]): 0
Plant response rating, B. signalgrass (surinam grass; [12]): 0
Plant response rating, B. signalgrass (surinam grass; [13]): 4
B. signalgrass plant response rating (surinam grass; [15]): 0
B. signalgrass plant response rating (surinam grass; [14]): 0
Ducksalad plant response rating (duck salad; [1]): 0
Ducksalad plant response rating (duck salad; [2]): 0
Ducksalad plant response rating (duck salad; [3]): 0
Ducksalad plant response rating (duck salad; [4]): 0
Plant response rating, Ducksalad (duck salad; [5]): 0
Ducksalad plant response rating (duck salad; [6]): 0
Ducksalad plant response rating (duck salad; [7]): 0
Ducksalad plant response rating (duck salad; [8]): 0
Wild oats plant response rating (wild oat; [1]): 0
Wild oats plant response rating (wild oat; [9]): 0
Wild oats plant response rating (wild oat; [10]): 0
Plant response rating, Wild oats (wild oat; [12]): 2
Plant response rating, Wild oats (wild oat; [13]): 8
Wild oats plant response rating (wild oat; [14]): 0
Bedstraw plant response rating (bedstraw; [1]): 0
Bedstraw plant response rating (bedstraw; [9]): 0
Bedstraw plant response rating (bedstraw; [10]): 0
Plant response rating, Bedstraw (bedstraw; [11]): 0
Plant response rating, Bedstraw (bedstraw; [12]): 0
Plant response rating, Bedstraw (bedstraw; [13]): 0
Bedstraw plant response rating (bedstraw; [15]): 0
Bedstraw plant response rating (bedstraw; [14]): 0
Soybean plant response rating (soybean; [1]): 1
Soybean plant response rating (soybean; [9]): 2
Soybean plant response rating (soybean; [10]): 0
Plant response rating, Soybean (soybean; [11]): 0
Plant response rating, Soybean (soybean; [12]): 0
Plant response rating, Soybean (soybean; [13]): 0
Soybean plant response rating (soybean; [14]): 1
Crabgrass plant response rating (crabgrass; [1]): 1
Crabgrass plant response rating (crabgrass; [9]): 9
Crabgrass plant response rating (crabgrass; [10]): 2
Plant response rating, Crabgrass (crabgrass; [11]): 3
Plant response rating, Crabgrass (crabgrass; [12]): 9
Plant response rating, Crabgrass (crabgrass; [13]): 10
Crabgrass plant response rating (crabgrass; [15]): 0
Crabgrass plant response rating (crabgrass; [14]): 8
Morningglory plant response rating (morningglory; [1]): 1
Morningglory plant response rating (morningglory; [9]): 6
Morningglory plant response rating (morningglory; [10]): 0
Plant response rating, Morningglory (morningglory; [11]): 0
Plant response rating, Morningglory (morningglory; [12]): 0
Plant response rating, Morningglory (morningglory; [13]): 0
Morningglory plant response rating (morningglory; [15]): 1
Morningglory plant response rating (morningglory; [14]): 1
Redroot pigweed plant response rating (pigweed; [1]): 0
Redroot pigweed plant response rating (pigweed; [9]): 0
Redroot pigweed plant response rating (pigweed; [10]): 0
Plant response rating, Redroot pigweed (pigweed; [11]): 0
Plant response rating, Redroot pigweed (pigweed; [12]): 0
Plant response rating, Redroot pigweed (pigweed; [13]): 7
Redroot pigweed plant response rating (pigweed; [15]): 0
Redroot pigweed plant response rating (pigweed; [14]): 0
Barnyardgrass plant response rating (bamyardgrass; [1]): 0
Barnyardgrass plant response rating (bamyardgrass; [2]): 0
Barnyardgrass plant response rating (bamyardgrass; [3]): 0
Barnyardgrass plant response rating (bamyardgrass; [4]): 0
Plant response rating, Barnyardgrass (bamyardgrass; [5]): 0
Barnyardgrass plant response rating (bamyardgrass; [6]): 0
Barnyardgrass plant response rating (bamyardgrass; Rate 2000 g/ha, Pre-emergence (as headed), scale 0 to 10, 0 no effect, 10 complete control): 0
Barnyardgrass plant response rating (bamyardgrass; [8]): 0
